This passage reports carcinogen call results from PubChem BioAssay AID1259411 (Chemical Carcinogenesis Research Information System (CCRIS), 2018).

The test system of the data set is rodent carcinogenicity bioassays, tumor incidence. Nature of the data set: CCRIS carcinogenicity studies. In outline: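 Archive of carcinogenicity, mutagenicity, tumor promotion and tumor inhibition results drawn from journals, NCI reports and other sources, expert-reviewed; covers 1985-2011 and is no longer updated.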

Active and inactive are the calls of the source. No rule for the calls is given here.

On to `O=C(O)CCl`, for which the carcinogen call by setting is: (Species: MOUSE, Strain/Sex: B6C3F1/FEMALE, Route: GAVAGE, Dose: 0, 50, 100 MG/KG IN DEIONIZED WATER 5 D/WK FOR 104 WK (STUDY DURATION: 104 WK), Dose: 0, 50, 100 MG/KG IN DEIONIZED WATER 5 D/WK FOR 104 WK (STUDY DURATION: 104 WK)) “inactive; negative”; (Species: MOUSE, Strain/Sex: B6C3F1/MALE, Route: GAVAGE, Dose: 0, 50, 100 MG/KG IN DEIONIZED WATER 5 D/WK FOR 104 WK (STUDY DURATION: 104 WK), Dose: 0, 50, 100 MG/KG IN DEIONIZED WATER 5 D/WK FOR 104 WK (STUDY DURATION: 104 WK)) “inactive; negative”; (Species: RAT, Strain/Sex: F344/FEMALE, Route: GAVAGE, Dose: 0, 15, 30 MG/KG IN DEIONIZED WATER 5 D/WK FOR 104 WK (STUDY DURATION: 105 WK), Dose: 0, 15, 30 MG/KG IN DEIONIZED WATER 5 D/WK FOR 104 WK (STUDY DURATION: 105 WK)) “inactive; negative”; (Species: RAT, Strain/Sex: F344/MALE, Route: GAVAGE, Dose: 0, 15, 30 MG/KG IN DEIONIZED WATER 5 D/WK FOR 104 WK (STUDY DURATION: 105 WK), Dose: 0, 15, 30 MG/KG IN DEIONIZED WATER 5 D/WK FOR 104 WK (STUDY DURATION: 105 WK)) “inactive; negative”; (Species: RAT, Strain/Sex: F344/MALE, Route: ORAL, Dose: O, 0.05, 0.5, 2 G/L IN DRINKING WATER FOR 104 WK, THE 2.5 G/L CONCENTRATION WAS LOWERED TO 1.5 G/L AT 8 WK THEN TO 1 G/L, Dose: O, 0.05, 0.5) “inactive; negative”.

As to `c1ccc2c(c1)ccc1nc3c(ccc4ccccc43)cc12`, the carcinogen call is “active; positive” (Species: MOUSE, Route: DERMAL, Tumor Site: Type of Lesion: INTEGUMENTARY SYSTEM (SKIN)); “active; positive” (Species: MOUSE, Route: SUBCUTANEOUS, Tumor Site: Type of Lesion: INJECTION SITE, LUNG); “active; positive” (Species: RAT, Strain/Sex: OSBORNE-MENDEL/FEMALE, Route: LUNG IMPLANT, Dose: 0, 0.1, 0.3, 1.0 MG IN BEESWAX/TRICAPRYLIN (STUDY DURATION: LIFETIME), Dose: 0, 0.1, 0.3, 1.0 MG IN BEESWAX/TRICAPRYLIN (STUDY DURATION: LIFETIME), Tumor Site: Type of Lesion: LUNG: EPIDERMOID CARCINOMA).

Regarding `CS(=O)(=O)OCCCCOS(C)(=O)=O`, under “Species: MOUSE, Route: INTRAVENOUS, Tumor Site: Type of Lesion: OVARIES, THYMUS GLAND”, the carcinogen call was “active; positive”.

For `O=S(=O)(O)c1ccc(N=Nc2c(O)ccc3ccccc23)cc1`, the carcinogen call by setting is: (Species: MOUSE, Strain/Sex: SWISS-WEBSTER/FEMALE, Route: DERMAL, Dose: 0, 1% IN 0.1 ML DISTILLED WATER 1/WK FOR 18 MO (STUDY DURATION: 18 MO)) “inactive; negative”; (Species: MOUSE, Strain/Sex: SWISS-WEBSTER/MALE, Route: DERMAL, Dose: 0, 1% IN 0.1 ML DISTILLED WATER 1/WK FOR 18 MO (STUDY DURATION: 18 MO)) “inactive; negative”.

As for `ClC1=C(Cl)C2(Cl)C3C(Cl)C(Cl)CC3C1(Cl)C2(Cl)Cl` (stereo unspecified), the carcinogen call is, setting by setting: (Species: MOUSE, Strain/Sex: C57B1/MALE, Route: ORAL, Dose: 0, 50 PPM IN DIET FOR 24 MO (STUDY DURATION: 24 MO), Tumor Site: Type of Lesion: LIVER: ADENOMA OR CARCINOMA) “active; positive”; (Species: MOUSE, Strain/Sex: ICR/FEMALE, Route: ORAL, Dose: 0, 1, 5, 12.5 PPM IN DIET FOR 104 WK (STUDY DURATION: 104 WK), Dose: 0, 1, 5, 12.5 PPM IN DIET FOR 104 WK (STUDY DURATION: 104 WK)) “inactive; negative”; (Species: MOUSE, Strain/Sex: ICR/MALE, Route: ORAL, Dose: 0, 1, 5, 12.5 PPM IN DIET FOR 104 WK (STUDY DURATION: 104 WK), Dose: 0, 1, 5, 12.5 PPM IN DIET FOR 104 WK (STUDY DURATION: 104 WK), Tumor Site: Type of Lesion: LIVER: ADENOMA, HEMANGIOMA) “active; positive”; (Species: RAT, Strain/Sex: F344/FEMALE, Route: ORAL, Dose: 0, 1, 5, 25 PPM IN DIET FOR 130 WK (STUDY DURATION: 130 WK), Dose: 0, 1, 5, 25 PPM IN DIET FOR 130 WK (STUDY DURATION: 130 WK), Tumor Site: Type of Lesion: MAMMARY GLAND: FIBROADENOMA) “active; positive”; (Species: RAT, Strain/Sex: F344/MALE, Route: ORAL, Dose: 0, 1, 5, 25 PPM IN DIET FOR 130 WK (STUDY DURATION: 130 WK), Dose: 0, 1, 5, 25 PPM IN DIET FOR 130 WK (STUDY DURATION: 130 WK), Tumor Site: Type of Lesion: LIVER: NODULE) “active; positive”.

Take `Nc1ccccc1-c1ccccc1`: the carcinogen call (Species: MOUSE, Strain/Sex: B6C3F1/FEMALE, Route: ORAL, Dose: 0, 1000, 3000 PPM IN DIET FOR 103 WK (STUDY DURATION: 103 WK), Dose: 0, 1000, 3000 PPM IN DIET FOR 103 WK (STUDY DURATION: 103 WK), Tumor Site: Type of Lesion: BLOOD VESSELS: HEMANGIOMA, HEMANGIOSARCOMA) was “active; positive”; the carcinogen call (Species: MOUSE, Strain/Sex: B6C3F1/MALE, Route: ORAL, Dose: 0, 1000, 3000 PPM IN DIET FOR 103 WK (STUDY DURATION: 103 WK), Dose: 0, 1000, 3000 PPM IN DIET FOR 103 WK (STUDY DURATION: 103 WK), Tumor Site: Type of Lesion: SPLEEN: HEMANGIOSARCOMA) is “equivocal”; the carcinogen call (Species: RAT, Strain/Sex: F344/FEMALE, Route: ORAL, Dose: 0, 1000, 3000 PPM IN DIET FOR 103 WK (STUDY DURATION: 103 WK), Dose: 0, 1000, 3000 PPM IN DIET FOR 103 WK (STUDY DURATION: 103 WK)) is “inactive; negative”; the carcinogen call (Species: RAT, Strain/Sex: F344/MALE, Route: ORAL, Dose: 0, 1000, 3000 PPM IN DIET FOR 103 WK (STUDY DURATION: 103 WK), Dose: 0, 1000, 3000 PPM IN DIET FOR 103 WK (STUDY DURATION: 103 WK)) was “inactive; negative”.

On to `CC(=O)Nc1ccc2ccc3cccc4ccc1c2c34`, for which the carcinogen call (Species: RAT, Strain/Sex: STRAIN-CD/FEMALE, Route: INTRAPERITONEAL, Dose: 0, 67 UMOL/KG BW IN DMSO 3/WK FOR 4 WK (STUDY DURATION: 61 WK)) is “inactive; negative” and the carcinogen call (Species: RAT, Strain/Sex: STRAIN-CD/FEMALE, Route: INTRAPERITONEAL, Dose: 0, 67 UMOL/KG/BW IN 25 UMOL/ML DMSO 3/WK FOR 4 WK (TOTAL DOSE: 0; 119 UMOL) ADMINISTERED TO WEANLING RATS (STUDY DURATIO, Dose: 0, 67 UMOL/KG/BW IN 25 UMOL/ML DMSO 3/WK FOR 4 WK (TOTAL DOSE: 0; 119 UMOL) ADMINISTERED TO WEANLING RATS (STUDY DURATIO) is “inactive; negative”.

For `C[C@@H]1O[C@@H](OC[C@H]2O[C@@H](Oc3c(-c4ccc(O)c(O)c4)oc4cc(OS(=O)(=O)O)cc(OS(=O)(=O)O)c4c3=O)[C@H](O)[C@@H](O)[C@@H]2O)[C@H](O)[C@H](O)[C@H]1O`, the carcinogen call (Species: RAT, Strain/Sex: SPRAGUE-DAWLEY/FEMALE, Route: GAVAGE, Dose: 0, 10, 27, 71, 188, 500 MG/KG 3/WK FOR 2 YR (STUDY DURATION: 2 YR), Dose: 0, 10, 27, 71, 188, 500 MG/KG 3/WK FOR 2 YR (STUDY DURATION: 2 YR)) was “inactive; negative” and the carcinogen call (Species: RAT, Strain/Sex: SPRAGUE-DAWLEY/MALE, Route: GAVAGE, Dose: 0, 10, 27, 71, 188, 500 MG/KG 3/WK FOR 2 YR (STUDY DURATION: 2 YR), Dose: 0, 10, 27, 71, 188, 500 MG/KG 3/WK FOR 2 YR (STUDY DURATION: 2 YR)) is “inactive; negative”.

Regarding `CCCNN`, the carcinogen call runs as follows: (Species: MOUSE, Strain/Sex: SWISS/FEMALE, Route: ORAL, Dose: 0, 0.025% SOLUTION IN DRINKING WATER DAILY FOR LIFE FOR AND AVERAGE DAILY INTAKE OF 0, 3.0 MG (STUDY DURATION: 100 WK), Dose: 0, 0.025% SOLUTION IN DRINKING WATER DAILY FOR LIFE FOR AND AVERAGE DAILY INTAKE OF 0, 3.0 MG (STUDY DURATION: 100 WK), Tumor Site: Type of Lesion: LUNG: ADENOMA, LUNG: ADENOMA OR ADENOCARCINOMA) “active; positive”; (Species: MOUSE, Strain/Sex: SWISS/MALE, Route: ORAL, Dose: 0, 0.025% SOLUTION IN DRINKING WATER DAILY FOR LIFE FOR AN AVERAGE DAILY INTAKE OF 0, 2.9 MG (STUDY DURATION: 100 WK), Dose: 0, 0.025% SOLUTION IN DRINKING WATER DAILY FOR LIFE FOR AN AVERAGE DAILY INTAKE OF 0, 2.9 MG (STUDY DURATION: 100 WK), Tumor Site: Type of Lesion: LUNG: ADENOMA, LUNG: ADENOMA OR ADENOCARCINOMA) “active; positive”.
